From patent US8691761B2, “Somatostatin receptor 2 antagonists” (priority 2006, dated 2014)
Where “and” joins values, the source holds several entries; their conditions need not be identical. Equal entries are not always repeated. Entries after “also recorded” stand apart in the source; their conditions may differ. Where two headings read alike, the source gives them in different places. Bridge positions count the residues as written; N and C are the ends. Square brackets hold non-standard residues; d marks the D form. Peptide text beside a SMILES is read from it. * marks the point of attachment. ξ: configuration not given here. DOTA = O=C(O)CN1CCN(CC(=O)O)CCN(CC(=O)*)CCN(CC(=O)O)CC1; Phe(4-NO2) = N[C@@H](Cc1ccc([N+](=O)[O-])cc1)C(=O)O; dPhe(4-NHCONH2) = NC(=O)Nc1ccc(C[C@@H](N)C(=O)O)cc1; Dihydroorotyl(S) = O=C1C[C@@H](C(=O)*)NC(=O)N1; Phe(4-Cl) = N[C@@H](Cc1ccc(Cl)cc1)C(=O)O; ξDihydroorotoyl = O=C1CC(C(=O)*)NC(=O)N1; Phe(4-NH2) = Nc1ccc(C[C@H](N)C(=O)O)cc1; 2Nal = N[C@@H](Cc1ccc2ccccc2c1)C(=O)O; ξPhe(4-NH2) = Nc1ccc(CC(N)C(=O)O)cc1

Columns and labels:
hSSTR5 = molecular target: T1, hSSTR5 (Homo sapiens, UniProt P35346); assay: Receptor autoradiography, displacement of 125I-[Leu8,D-Trp22,Tyr25]-SRIF-28 from membrane pellet sections; assay type: binding
T1 construct: expressed in transfected cells; host or cells: CHO-K1 or CCL39 cells
T1 sequence (P35346 whole entry): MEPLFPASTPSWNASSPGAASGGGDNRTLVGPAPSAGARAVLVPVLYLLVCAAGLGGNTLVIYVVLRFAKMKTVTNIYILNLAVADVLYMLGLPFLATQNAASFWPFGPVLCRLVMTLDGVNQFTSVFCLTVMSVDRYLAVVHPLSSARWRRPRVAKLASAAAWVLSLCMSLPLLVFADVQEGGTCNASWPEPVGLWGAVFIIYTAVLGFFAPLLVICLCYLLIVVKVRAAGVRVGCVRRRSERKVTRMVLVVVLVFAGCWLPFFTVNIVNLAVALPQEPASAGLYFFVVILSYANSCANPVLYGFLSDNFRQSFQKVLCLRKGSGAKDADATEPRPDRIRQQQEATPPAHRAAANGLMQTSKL

hSSTR4 = molecular target: T2, hSSTR4 (Homo sapiens, UniProt P31391); assay: as above; assay type: binding
T2 construct: expressed in transfected cells; host or cells: CHO-K1 or CCL39 cells
T2 sequence (P31391 whole entry): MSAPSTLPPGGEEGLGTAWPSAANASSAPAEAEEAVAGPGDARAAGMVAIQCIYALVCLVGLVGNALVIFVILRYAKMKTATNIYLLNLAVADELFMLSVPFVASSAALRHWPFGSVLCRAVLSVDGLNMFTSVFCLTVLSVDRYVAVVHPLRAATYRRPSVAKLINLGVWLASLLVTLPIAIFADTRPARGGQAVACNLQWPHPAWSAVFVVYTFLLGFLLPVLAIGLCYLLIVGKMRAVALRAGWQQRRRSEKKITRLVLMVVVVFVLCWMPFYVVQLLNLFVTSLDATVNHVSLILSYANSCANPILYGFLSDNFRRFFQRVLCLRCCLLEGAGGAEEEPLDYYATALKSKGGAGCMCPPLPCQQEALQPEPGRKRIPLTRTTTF

hSSTR2 = molecular target: T3, hSSTR2 (Homo sapiens, UniProt P30874); assay: as above; assay type: binding
T3 construct: expressed in transfected cells; host or cells: CHO-K1 or CCL39 cells
T3 sequence (P30874 whole entry): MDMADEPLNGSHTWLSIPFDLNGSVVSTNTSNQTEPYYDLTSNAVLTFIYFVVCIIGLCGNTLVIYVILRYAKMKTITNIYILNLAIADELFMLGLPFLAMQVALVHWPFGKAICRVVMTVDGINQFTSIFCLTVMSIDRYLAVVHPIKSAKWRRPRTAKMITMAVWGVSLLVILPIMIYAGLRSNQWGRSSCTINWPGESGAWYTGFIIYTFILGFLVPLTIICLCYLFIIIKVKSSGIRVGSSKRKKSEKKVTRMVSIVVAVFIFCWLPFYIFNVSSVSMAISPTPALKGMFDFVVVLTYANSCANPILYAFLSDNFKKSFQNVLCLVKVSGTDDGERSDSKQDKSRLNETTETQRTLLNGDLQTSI

hSSTR1 = molecular target: T4, hSSTR1 (Homo sapiens, UniProt P30872); assay: as above; assay type: binding
T4 construct: expressed in transfected cells; host or cells: CHO-K1 or CCL39 cells
T4 sequence (P30872 whole entry): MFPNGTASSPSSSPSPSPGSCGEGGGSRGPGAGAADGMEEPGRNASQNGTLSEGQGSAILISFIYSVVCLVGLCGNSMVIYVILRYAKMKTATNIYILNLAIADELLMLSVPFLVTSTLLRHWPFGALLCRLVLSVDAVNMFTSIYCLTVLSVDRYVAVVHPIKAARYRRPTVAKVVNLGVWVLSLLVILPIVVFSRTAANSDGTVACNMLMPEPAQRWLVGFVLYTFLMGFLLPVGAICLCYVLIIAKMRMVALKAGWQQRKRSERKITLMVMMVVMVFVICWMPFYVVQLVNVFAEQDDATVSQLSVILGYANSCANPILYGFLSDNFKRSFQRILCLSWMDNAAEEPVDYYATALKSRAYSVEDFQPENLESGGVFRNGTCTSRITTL

hSSTR3 = molecular target: T5, hSSTR3 (Homo sapiens, UniProt P32745); assay: as above; assay type: binding
T5 construct: expressed in transfected cells; host or cells: CHO-K1 or CCL39 cells
T5 sequence (P32745 whole entry): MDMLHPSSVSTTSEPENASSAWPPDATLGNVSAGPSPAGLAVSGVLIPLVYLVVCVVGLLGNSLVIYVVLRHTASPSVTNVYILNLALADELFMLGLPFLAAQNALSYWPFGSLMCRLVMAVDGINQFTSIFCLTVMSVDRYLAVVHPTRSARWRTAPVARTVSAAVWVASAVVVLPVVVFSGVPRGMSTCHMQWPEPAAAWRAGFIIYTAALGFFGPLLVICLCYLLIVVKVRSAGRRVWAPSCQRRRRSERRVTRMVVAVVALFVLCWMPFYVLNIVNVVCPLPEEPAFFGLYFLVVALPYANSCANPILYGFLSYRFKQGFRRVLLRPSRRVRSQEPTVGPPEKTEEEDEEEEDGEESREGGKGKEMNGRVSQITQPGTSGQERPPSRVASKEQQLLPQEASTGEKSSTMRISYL

sst2 = sst2 (Homo sapiens, UniProt P30874); assay: Calcium release assay in HEK-sst2 cells (Fluo-4NW); assay type: cell-based; set-up: expressed in transfected cells; host or cells: HEK293 (HEK-sst2); conditions: n ≧ 2
Chain of sst2 (P30874 whole entry): as the sequence (P30874 whole entry) above
Method: Calcium release assay. Intracellular calcium release was measured in HEK-sst2 using the Fluo-4NW Calcium Assay kit as described previously (Magrys, et al. “The role of anti-alpha-enolase autoantibodies in pathogenicity of autoimmune-mediated retinopathy.” J. Clin. Immunol. 2007, 27, 181-192; Michel et al. “The Nef protein of human immunodeficiency virus is a broad-spectrum modulator of chemokine receptor cell surface levels that acts independently of classical motifs for receptor endocytosis and Galphai signaling.” Mol. Biol. Cell. 2006, 17, 3578-3590). In brief, HEK-sst2 cells were seeded (25,000 cells per well) in poly-D-lysine (20 μg/mL) coated 96 well plates and cultured for 1 day at 37° C. and 5% CO2 in culture medium. At the day of the experiment, the cells were washed with assay buffer (1×HBSS, 20 mM HEPES) containing 2.5 mM probenecid, and then loaded with 100 μL/well Fluo-4NW dye in assay buffer containing 2.5 mM probenecid for 30 min at 37° C. and 5% CO2 and then for further 30 min at room temperature. To measure the intracellular calcium mobilization after stimulation with the SRIF analogues to be tested, the dye-loaded cells were transferred to a SpectraMax M2^e (Molecular Devices, Sunnyvale, Calif.). Intracellular calcium mobilization was recorded in a kinetic for 60 sec at room temperature monitoring fluorescence emission at 520 nm (with λex=485 nm) in the presence of the analogues at the concentrations indicated. Maximum fluorescence (Fmax) was measured after the addition of 25 μM ionomycin. Baseline (control) measurements were taken for dye-loaded, untreated cells. Data are shown as percentage of Fmax (% Fmax) as reported previously. (Magrys, et al. J. Clin. Immunol. 2007, 27, 181-192; Michel et al. Mol. Biol. Cell. 2006, 17, 3578-3590). All experiments were repeated at least three times in triplicate.

human sst2A receptor = molecular target: T6, human sst2A receptor (Homo sapiens, UniProt P30874); assay: Immunofluorescence-based sst2 internalization assay in HEK-sst2 cells; assay type: cell-based; conditions: n ≧ 2
T6 construct: expressed in transfected cells; host or cells: HEK293 (HEK-sst2)
T6 sequence (P30874 whole entry): as above
How it was run: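 HEK-sst2 cells treated with vehicle, 100 nM [Tyr^3]-octreotide, octreotide plus 100-fold excess test analogue, or test analogue alone at 10 μM. Receptor internalization visualized by immunofluorescence microscopy with sst2-specific antibody R2-88.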

HEK-sst2 tumors [1] = conditions: mouse, in vivo
Method: (§1) The following protocol was used to determine biodistribution
(§2) Confirmation that the transfected tumors were indeed expressing solely sst2 was obtained in resected tumor samples tested in vitro with somatostatin receptor autoradiography using subtype selective ligands.
(§3) The biodistribution of was studied at 4 h or 24 h after injection. The organs of interest were collected, blotted dry, weighed, their radioactivity measured and the percentage of injected activity per gram (% IA/g) calculated.

HEK-sst2 tumors [2] = assay: In vivo biodistribution of radiolabeled peptides in nude mice bearing HEK-sst2 tumors; conditions: for tumor to kidney ratio (in words): mouse, in vivo
Method: as §1, §2, §3

[3] = molecular target: T7-epitope-tagged human sst2 (Homo sapiens, UniProt P30874); assay: Quantitative assay for sst2 internalization (ELISA) in HEK-sst2 cells; assay type: cell-based; conditions: FIG. 3
Chain of T7-epitope-tagged human sst2 (P30874 whole entry): as above
Method: Quantitative assay for sst2 internalization (ELISA) Receptor internalization was determined using an ELISA to quantitate T7-epitope-tagged human sst2 on the cell surface. HEK-sst2 cells were seeded on poly-D-lysine (20 μg/mL) coated 24-well plates (250,000 cells per well) in growth medium and cultured for 1 day at 37° C. and 5% CO2. […] After washing with DMEM-LH to remove unbound antibody, cells were incubated for 30 min at 37° C. and 5% CO2 either without or with the ligands added at the concentrations indicated. Incubations were terminated by placing the plates in an ice bath. Cells were then washed twice with cold PBS and fixed for 10 min at room temperature with 3% paraformaldehyde in PBS (pH 7.4). […] After 3 additional washes with PBS, antibody binding was measured by adding 0.3 mL substrate mix for horseradish peroxidase (ABTS). The OD405 was measured after an approximately 30 min incubation at room temperature. The amount of sst2 remaining at the cell surface after ligand treatment was calculated as the absorbance measured in treated cells expressed as a percentage of the absorbance in untreated cells. Nonspecific absorbance was determined in experiments in which HEK293-sst2 cells were incubated without the anti-T7 antibody. […]

in vivo = conditions: female, athymic nude, mouse, iv, total radioactivity, biodistribution
Method: as §1, §2, §3

Compound `C[C@@H](O)[C@@H]1NC(=O)[C@H](CCCCN)NC(=O)[C@@H](Cc2ccc(NC(N)=O)cc2)NC(=O)[C@H](Cc2ccc(O)cc2)NC(=O)[C@H](NC(=O)[C@H](Cc2ccc([N+](=O)[O-])cc2)NC(=O)CN2CCN(CC(=O)O)CCN(CC(=O)O)CCN(CC(=O)O)CC2)CSSC[C@@H](C(=O)N[C@H](Cc2ccc(O)cc2)C(N)=O)NC1=O` [Peptide No. 3, DOTA-pNO2Phe-c[DCys-Tyr-DAph(Cbm)-Lys-Thr-Cys]-DTyr-NH2] ({DOTA}-[Phe(4-NO2)][dC]Y[dPhe(4-NHCONH2)]KTC[dY]-NH2; disulfide 2-7) has an IC50 (hSSTR5; Table 1, inhibition of radioligand binding to cloned human receptor, read-out: IC50 hSSTR5) of over 1000 nM, an IC50 (hSSTR5; Table 3, mean ± SEM when N ≧ 3, read-out: sst5 binding affinity (IC50)) of over 1000 nM and an IC50 (hSSTR4; Table 1, inhibition of radioligand binding to cloned human receptor, read-out: IC50 hSSTR4) of over 1000 nM. The IC50 (hSSTR4; Table 3, mean ± SEM when N ≧ 3, read-out: sst4 binding affinity (IC50)) was over 1000 nM, the “sst2 binding affinity relative to SRIF-28” value (hSSTR2) was “three to four-fold greater” and the IC50 (hSSTR2; Table 1, inhibition of radioligand binding to cloned human receptor, read-out: IC50 hSSTR2) was 0.53 ± 0.06 nM. The IC50 (hSSTR2; Table 3, mean ± SEM when N ≧ 3, read-out: sst2 binding affinity (IC50)) was 0.75 nM and < 1 nM, the IC50 (hSSTR1; Table 1, inhibition of radioligand binding to cloned human receptor, read-out: IC50 hSSTR1) was over 1000 nM and the IC50 (hSSTR1; Table 3, mean ± SEM when N ≧ 3, read-out: sst1 binding affinity (IC50)) was over 1000 nM. For the same compound, the IC50 (hSSTR3; Table 1, inhibition of radioligand binding to cloned human receptor, read-out: IC50 hSSTR3) was over 1000 nM, the IC50 (hSSTR3; Table 3, mean ± SEM when N ≧ 3, read-out: sst3 binding affinity (IC50)) was over 1000 nM and the “Calcium release tested in vitro in HEK-sst2 cells (function)” value (from here on “Calcium release tested in vitro”) (sst2) was “Antagonist”. The “sst2-internalization tested in vitro in HEK-sst2 cells (function)” value (from here on “sst2-internalization tested in vitro”) (human sst2A receptor) was “antagonistic property; also recorded: Antagonist” and the “tumor to kidney ratio (in words)” value (HEK-sst2 tumors [1]) was “excellent tumor to kidney ratio”.
For `C[C@@H](O)[C@@H]1NC(=O)[C@H](CCCCN)NC(=O)[C@@H](Cc2ccc(NC(N)=O)cc2)NC(=O)C(Cc2ccc(NC(=O)C3CC(=O)NC(=O)N3)cc2)NC(=O)[C@H](NC(=O)[C@H](Cc2ccc(Cl)cc2)NC(=O)CN2CCN(CC(=O)O)CCN(CC(=O)O)CCN(CC(=O)O)CC2)CSSC[C@@H](C(=O)N[C@@H](Cc2ccc3ccccc3c2)C(N)=O)NC1=O` (stereo partly drawn) [Peptide No. 30, DOTA-Cpa-c[DCys-Aph(Hor)-DAph(Cbm)-Lys-Thr-Cys]-2Nal-NH2] ({DOTA}-[Phe(4-Cl)][dC][ξPhe(4-NH2)](ξDihydroorotoyl)[dPhe(4-NHCONH2)]KTC[2Nal]-NH2; disulfide 2-7), the “Calcium release tested in vitro” value (sst2) was “Antagonist”, the “tumor to kidney ratio (in words)” value (HEK-sst2 tumors [2]) was “excellent tumor to kidney ratio” and the “sst2-internalization tested in vitro” value (human sst2A receptor) was “Antagonist”.
With `C[C@@H](O)[C@@H]1NC(=O)[C@H](CCCCN)NC(=O)[C@@H](Cc2c[nH]c3ccccc23)NC(=O)[C@H](Cc2ccc(O)c(I)c2)NC(=O)[C@H](NC(=O)[C@H](Cc2ccc([N+](=O)[O-])cc2)NC(=O)CN2CCN(CC(=O)O)CCN(CC(=O)O)CCN(CC(=O)O)CC2)CSSC[C@@H](C(=O)N[C@H](Cc2ccc(O)cc2)C(N)=O)NC1=O` [Peptide No. 32, DOTA-pNO2Phe-c[DCys-ITyr-DTrp-Lys-Thr-Cys]-DTyr-NH2] the “Calcium release tested in vitro” value (sst2) was “Antagonist”, the “tumor to kidney ratio (in words)” value (HEK-sst2 tumors [2]) was “excellent tumor to kidney ratio” and the “function in the ELISA internalization assay” value [3] was “antagonistic properties”. For the same compound, the “sst2-internalization tested in vitro” value (human sst2A receptor) was “antagonistic property; also recorded: Antagonist”.
For `C[C@@H](O)[C@@H]1NC(=O)[C@H](CCCCN)NC(=O)[C@@H](Cc2ccc(NC(N)=O)cc2)NC(=O)[C@H](Cc2ccc(NC(=O)[C@@H]3CC(=O)NC(=O)N3)cc2)NC(=O)[C@H](NC(=O)[C@H](Cc2ccc(Cl)cc2)NC(=O)CN2CCN(CC(=O)O)CCN(CC(=O)O)CCN(CC(=O)O)CC2)CSSC[C@@H](C(N)=O)NC1=O` [^111In-labelled Peptide No. 33, metal not drawn] ({DOTA}-[Phe(4-Cl)][dC][Phe(4-NH2)](Dihydroorotyl(S))[dPhe(4-NHCONH2)]KTC-NH2; disulfide 2-7), the “effect of excess unlabelled compound on binding in vivo” value (HEK-sst2 tumors [2]; 1000- or 2000-fold excess of unlabelled compound) was “inhibited binding”, the tissue uptake at 4 h (in vivo; adrenal) was 0.23 %ID/g and the tissue uptake at 4 h (in vivo; blood) was 0.12 %ID/g. The tissue uptake at 4 h (in vivo; bone) was 0.04 %ID/g, the tissue uptake at 4 h (in vivo; heart) was 0.05 %ID/g and the tissue uptake at 4 h (in vivo; liver) was 0.32 %ID/g. The tissue uptake at 4 h (in vivo; muscle) was 0.02 %ID/g, the tissue uptake at 4 h (in vivo; pancreas) was 0.05 %ID/g and the tissue uptake at 4 h (in vivo; pituitary) was 0.14 %ID/g. The tissue uptake at 4 h (in vivo; sst2 tumor) was 0.22 %ID/g, the tissue uptake at 4 h (in vivo; sst3 tumor) was 0.14 %ID/g and the “biodistribution, intestine” value (HEK-sst2 tumors [1]; female, athymic nude, iv, 4 h) was 0.09 % IA/g. For the same compound, the “biodistribution, kidney” value (HEK-sst2 tumors [1]; female, athymic nude, iv, 4 h) was 10.3 % IA/g, the “biodistribution, lung” value (HEK-sst2 tumors [1]; female, athymic nude, iv, 4 h) was 0.21 % IA/g and the “biodistribution, spleen” value (HEK-sst2 tumors [1]; female, athymic nude, iv, 4 h) was 0.2 % IA/g. The “biodistribution, stomach” value (HEK-sst2 tumors [1]; female, athymic nude, iv, 4 h) was 0.12 % IA/g.
